From article PMC8185074, “Anchor extension: a structure-guided approach to design cyclic peptides targeting enzyme active sites” (Nature Communications, 2021)
Peptide text beside a SMILES is read from it.

Target: T1, HDAC2 (Homo sapiens, UniProt Q92769)
T1 construct: purchased Reaction Biology Corporation (assay run by the CRO)
Experiment: Initial HDAC2 IC50 estimate (BPS Biosciences HDAC fluorogenic assay kit)
Assay type: biochemical
Conditions: HDAC2 activity (initial activity), Supplementary Dataset 2
Experimental: Initial IC50 values were estimated using HDAC fluorogenic assay kits from BPS Biosciences (HDAC2, HDAC4, and HDAC6) following the protocol described in the kit. All the measures were performed in duplicates or triplicates. These measurements were done either on full range of concentrations (1:10 dilution from 1 µM to 100 pM) or on two concentrations only (20 nM and 200 nM) as an estimate of the range. […] Source Data are provided as a Source Data file.

T1 sequence (Q92769 whole entry): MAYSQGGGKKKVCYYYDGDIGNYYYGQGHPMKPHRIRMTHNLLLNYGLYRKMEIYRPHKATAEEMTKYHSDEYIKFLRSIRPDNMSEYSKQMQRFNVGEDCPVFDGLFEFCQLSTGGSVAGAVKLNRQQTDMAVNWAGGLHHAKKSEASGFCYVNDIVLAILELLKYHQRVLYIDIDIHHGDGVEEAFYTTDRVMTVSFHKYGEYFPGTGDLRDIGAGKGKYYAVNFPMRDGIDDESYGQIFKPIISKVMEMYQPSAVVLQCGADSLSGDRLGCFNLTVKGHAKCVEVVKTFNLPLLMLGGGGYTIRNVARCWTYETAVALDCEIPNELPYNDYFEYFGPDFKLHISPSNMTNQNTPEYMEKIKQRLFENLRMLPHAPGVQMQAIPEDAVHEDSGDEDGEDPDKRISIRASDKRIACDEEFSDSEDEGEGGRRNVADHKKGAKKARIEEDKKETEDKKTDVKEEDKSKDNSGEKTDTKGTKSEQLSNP

Structure (SMILES) | IC50
C[C@H]1NC(=O)[C@@H](Cc2c[nH]cn2)NC(=O)[C@H](CCCCCS)NC(=O)[C@H](Cc2c[nH]c3ccccc23)NC(=O)[C@@H](CCCNC(=N)N)NC(=O)[C@@H]2CCCN2C(=O)[C@@H](CC(N)=O)NC(=O)[C@@H](CC(N)=O)NC(=O)[C@H](Cc2ccc(O)cc2)NC1=O [des3.6.0, SHA-dHis-dAla-Tyr-dAsn-dAsn-Pro-dArg-Trp] (HELM PEPTIDE1{P.[dR].W.[O=C([C@H](CCCCCS)N[*:1])[*:2]].[dH].[dA].Y.[dN].[dN]}$PEPTIDE1,PEPTIDE1,1:R1-9:R2$$$V2.0) | > 1000 nM
C[C@@H]1NC(=O)[C@@H](CCCNC(=N)N)NC(=O)[C@H](CCCCCS)NC(=O)[C@H](CCc2ccccc2)NC(=O)[C@@H](CCCNC(=N)N)NC(=O)[C@@H](Cc2ccccc2)NC(=O)[C@@H](CCC(=O)O)NC(=O)[C@@H](CCCCN)NC(=O)[C@@H]2CCCN2C1=O [des3.10.0, SHA-dArg-Ala-Pro-dLys-dGlu-dPhe-dArg-C27] (HELM PEPTIDE1{A.P.[dK].[dE].[dF].[dR].[O=C([C@H](CCc1ccccc1)N[*:1])[*:2]].[O=C([C@H](CCCCCS)N[*:1])[*:2]].[dR]}$PEPTIDE1,PEPTIDE1,1:R1-9:R2$$$V2.0) | 10 to 100 nM
C[C@H]1NC(=O)[C@H](CCCCCS)NC(=O)[C@H](CCN)NC(=O)[C@@H](CC(N)=O)NC(=O)[C@H](CO)NC(=O)[C@H](CC(=O)O)NC(=O)[C@@H](CC(=O)O)NC(=O)[C@@H]2CCCN2C(=O)[C@H](Cc2ccccc2)NC1=O [des3.5.1, SHA-dAla-Phe-Pro-dAsp-Asp-Ser-dAsn-Dab] (HELM PEPTIDE1{D.S.[dN].[Dab].[O=C([C@H](CCCCCS)N[*:1])[*:2]].[dA].F.P.[dD]}$PEPTIDE1,PEPTIDE1,1:R1-9:R2$$$V2.0) | > 1000 nM
